The values that follow come from patent US20130158075A1, “HETEROCYCLIC COMPOUNDS AS DGAT1 INHIBITORS” (PIRAMAL ENTERPRISES LIMITED, priority 2010, published 2013).

SMILES strings stand for the structures. Counter-ions that a name gives are not always drawn.

For this test, the target named is T1, hDGAT1 (Homo sapiens, UniProt O75907).
T1 construct: made in house; host or cells: Sf9 insect cells (baculovirus); microsomal fraction
T1 sequence (O75907 1-488): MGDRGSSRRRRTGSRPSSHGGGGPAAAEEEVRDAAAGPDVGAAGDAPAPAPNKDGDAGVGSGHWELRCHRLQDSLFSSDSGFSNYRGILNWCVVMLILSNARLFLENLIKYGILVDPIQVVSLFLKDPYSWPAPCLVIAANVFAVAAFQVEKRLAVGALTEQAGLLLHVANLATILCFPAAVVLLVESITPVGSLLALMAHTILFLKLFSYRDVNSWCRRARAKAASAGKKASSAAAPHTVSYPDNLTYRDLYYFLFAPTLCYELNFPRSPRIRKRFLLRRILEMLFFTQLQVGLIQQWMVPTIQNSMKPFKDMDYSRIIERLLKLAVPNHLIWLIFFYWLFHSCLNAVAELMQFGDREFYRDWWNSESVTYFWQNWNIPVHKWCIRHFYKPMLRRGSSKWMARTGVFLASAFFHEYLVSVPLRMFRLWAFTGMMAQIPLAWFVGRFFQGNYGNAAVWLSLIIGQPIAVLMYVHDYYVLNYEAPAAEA
Description: In-vitro DGAT1 assay with hDGAT1 microsomes from Sf9 cells (14C oleoyl CoA, scintillation counting). The format is biochemical. Particulars: read-out: Percentage inhibition of hDGAT1. An outline of the steps:
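Radiolabelled triglyceride formation was measured: heptane extracts were scintillation-counted after a 10-min, 37 °C reaction stopped with alkaline ethanol. Enzyme was human DGAT1 in baculovirus-infected Sf9 microsomal membranes; substrates were 14C oleoyl-CoA plus dioleoylglycerol. Runs were duplicated, and inhibition (%) was related to nM compound concentration.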
`O=C(O)CN1CCC(c2ncc(-c3ccc(NC(=O)Nc4ccc(F)cc4F)cc3)s2)CC1` [Example 433, 2-(4-(5-(4-(3-(2,4-Difluorophenyl)ureido)phenyl)thiazol-2-yl)piperidin-1-yl)acetic acid]: the inhibition at 1 µM is more than 50%.
The value for `O=C(O)CN1CCC(c2ncc(-c3ccc(NC(=O)Nc4cc(F)c(F)cc4F)cc3)s2)CC1` [Example 435, 2-(4-(5-(4-(3-(2,4,5-Trifluorophenyl)ureido)phenyl)thiazol-2-yl)piperidin-1-yl)acetic acid] was more than 50%; that for `O=C(O)CN1CCC(c2ncc(-c3ccc(NC(=O)Nc4ccccc4C(F)(F)F)cc3)s2)CC1` [Example 437, 2-(4-(5-(4-(3-(2-(Trifluoromethyl)phenyl)ureido)phenyl)thiazol-2-yl)piperidin-1-yl)acetic acid] was more than 50%.
The value for `O=C(O)CN1CCC(c2ncc(-c3ccc(NC(=O)Nc4ccc(F)c(F)c4F)cc3)s2)CC1` [Example 439, 2-(4-(5-(4-(3-(2,3,4-Trifluorophenyl)ureido)phenyl)thiazol-2-yl)piperidin-1-yl)acetic acid] was 20 to 50%.
The value for `CC(C(=O)O)N1CCC(c2ncc(-c3ccc(NC(=O)Nc4cc(F)c(F)cc4F)cc3)s2)CC1` (stereo not shown) [Example 451, 2-(4-(5-(4-(3-(2,4,5-Trifluorophenyl)ureido)phenyl)thiazol-2-yl)piperidin-1-yl)propanoic acid] was more than 50%; that for `CC(C(=O)O)N1CCC(c2ncc(-c3ccc(NC(=O)Nc4ccccc4F)cc3)s2)CC1` (stereo not shown) [Example 453, 2-(4-(5-(4-(3-(2-Fluorophenyl)ureido)phenyl)thiazol-2-yl)piperidin-1-yl) propanoic acid] was more than 50%.
`CC(C(=O)O)N1CCC(c2ncc(-c3ccc(NC(=O)Nc4ccccc4Cl)cc3)s2)CC1` (stereo not shown) [Example 455, 2-(4-(5-(4-(3-(2-Chlorophenyl)ureido)phenyl)thiazol-2-yl)piperidin-1-yl)propanoic acid]: the inhibition at 1 µM is more than 50%.
The value for `CC(C(=O)O)N1CCC(c2ncc(-c3ccc(NC(=O)Nc4c(F)cc(F)cc4F)cc3)s2)CC1` (stereo not shown) [Example 459, 2-(4-(5-(4-(3-(2,4,6-Trifluorophenyl)ureido)phenyl)thiazol-2-yl)piperidin-1-yl)propanoic acid] was more than 50%; that for `O=C(Nc1ccc(-c2cnc(C3CCNCC3)s2)cc1)Nc1ccccc1Cl` [Example 474, 1-(2-Chlorophenyl)-3-(4-(2-(piperidin-4-yl)thiazol-5-yl)phenyl)urea hydrochloride] was 20 to 50%; that for `CC(C)(C)OC(=O)N1CCC(c2ncc(-c3ccc(NC(=O)Nc4ccccc4F)cc3)s2)CC1` [Example 475, t-Butyl 4-(5-(4-(3-(2-fluorophenyl)ureido)phenyl)thiazol-2-yl)piperidine-1-carboxylate] was 20 to 50%.
Regarding `O=C(Nc1ccc(-c2cnc(C3CCNCC3)s2)cc1)Nc1ccccc1F` [Example 476, 1-(2-Fluorophenyl)-3-(4-(2-(piperidin-4-yl)thiazol-5-yl)phenyl)urea hydrochloride], the inhibition at 1 µM was 20 to 50%.
The value for `CC(C)(C)OC(=O)N1CCC(c2ncc(-c3ccc(NC(=O)Nc4ccc(F)cc4F)cc3)s2)CC1` [Example 477, t-Butyl 4-(5-(4-(3-(2,4-difluorophenyl)ureido)phenyl)thiazol-2-yl)piperidine-1-carboxylate] was 20 to 50%; that for `O=C(Nc1ccc(-c2cnc(C3CCNCC3)s2)cc1)Nc1ccc(F)cc1F` [Example 478, 1-(2,4-Difluorophenyl)-3-(4-(2-(piperidin-4-yl)thiazol-5-yl)phenyl)urea hydrochloride] was 20 to 50%.
`CC(C)(C)OC(=O)N1CCC(c2ncc(-c3ccc(NC(=O)Nc4c(F)cc(F)cc4F)cc3)s2)CC1` [Example 479, t-Butyl 4-(5-(4-(3-(2,4,6-trifluorophenyl)ureido)phenyl)thiazol-2-yl)piperidine-1-carboxylate]: the inhibition at 1 µM is 20 to 50%.
With `O=C(Nc1ccc(-c2cnc(C3CCNCC3)s2)cc1)Nc1cc(F)c(F)cc1F` [Example 480, 1-(4-(2-(Piperidin-4-yl)thiazol-5-yl)phenyl)-3-(2,4,5-trifluorophenyl)urea hydrochloride], the inhibition at 1 µM is 20 to 50%.
The value for `O=C(Nc1ccc(-c2cnc(C3CCN(S(=O)(=O)C(F)(F)F)CC3)s2)cc1)Nc1ccccc1F` [Example 483, 1-(2-Fluorophenyl)-3-(4-(2-(1-((trifluoromethyl)sulfonyl)piperidin-4-yl)thiazol-5-yl)phenyl)urea] was 20 to 50%.
In the case of `O=C(Nc1ccc(-c2cnc(C3CCN(S(=O)(=O)C(F)(F)F)CC3)s2)cc1)Nc1ccccc1Cl` [Example 484, 1-(2-Chlorophenyl)-3-(4-(2-(1-((trifluoromethyl)sulfonyl)piperidin-4-yl)thiazol-5-yl)phenyl)urea], the inhibition at 1 µM was 20 to 50%.
The figure for `O=C(Nc1ccc(-c2cnc(C3CCN(S(=O)(=O)C(F)(F)F)CC3)s2)cc1)Nc1ccc(F)cc1F` [Example 485, 1-(2,4-Difluorophenyl)-3-(4-(2-(1-((trifluoromethyl)sulfonyl)piperidin-4-yl)thiazol-5-yl)phenyl)urea] is 20 to 50%; for `O=C(Nc1ccc(-c2cnc(C3CCN(S(=O)(=O)C(F)(F)F)CC3)s2)cc1)Nc1c(F)cc(F)cc1F` [Example 486, 1-(4-(2-(1-((Trifluoromethyl)sulfonyl)piperidin-4-yl)thiazol-5-yl)phenyl)-3-(2,4,6-trifluorophenyl)urea] it is 20 to 50%; for `O=C(Nc1ccc(-c2cnc(C3CCN(S(=O)(=O)C(F)(F)F)CC3)s2)cc1)Nc1cc(F)c(F)cc1F` [Example 487, 1-(4-(2-(1-((Trifluoromethyl)sulfonyl)piperidin-4-yl)thiazol-5-yl)phenyl)-3-(2,4,5-trifluorophenyl)urea] it is 20 to 50%.
The figure for `CS(=O)(=O)N1CCC(c2ncc(-c3ccc(NC(=O)Nc4ccccc4Cl)cc3)s2)CC1` [Example 490, 1-(2-Chlorophenyl)-3-(4-(2-(1-(methylsulfonyl)piperidin-4-yl)thiazol-5-yl)phenyl)urea] is 20 to 50%.
Turning to `CS(=O)(=O)N1CCC(c2ncc(-c3ccc(NC(=O)Nc4ccccc4F)cc3)s2)CC1` [Example 491, 1-(2-Fluorophenyl)-3-(4-(2-(1-(methylsulfonyl)piperidin-4-yl)thiazol-5-yl)phenyl)urea], the inhibition at 1 µM is 20 to 50%.
The value for `CS(=O)(=O)N1CCC(c2ncc(-c3ccc(NC(=O)Nc4c(F)cc(F)cc4F)cc3)s2)CC1` [Example 493, 1-(4-(2-(1-(Methylsulfonyl)piperidin-4-yl)thiazol-5-yl)phenyl)-3-(2,4,6-trifluorophenyl)urea] was 20 to 50%; that for `CS(=O)(=O)N1CCC(c2ncc(-c3ccc(NC(=O)Nc4cc(F)c(F)cc4F)cc3)s2)CC1` [Example 494, 1-(4-(2-(1-(Methylsulfonyl)piperidin-4-yl)thiazol-5-yl)phenyl)-3-(2,4,5-trifluorophenyl)urea] was more than 50%.
The value for `O=C(Nc1ccc(-c2cnc(C34CC5CC(CC(C(=O)O)(C5)C3)C4)s2)cc1)Nc1ccccc1F` [Example 502, 3-(5-(4-(3-(2-Fluorophenyl)ureido)phenyl)thiazol-2-yl)adamantane-1-carboxylic acid] was more than 50%.

As a reminder, the inhibition is the share of the control response that was lost under treatment.
